# Assay results reported in patent US20240319166A1, “Genetically-encoded volatile synthetic biomarkers for breath-based cancer detection” (The Board of Trustees of the Leland Stanford Junior …, priority 2021, published 2024).
# Experiments:
# [1] = cited from earlier work
# [2] = Quantitation of limonene evolution from limonene-injected mice (closed chamber, SIFT-MS); type: in vivo
# Method: Having observed robust limonene expression in transfected HeLa cells in culture, the feasibility of detecting limonene in exhaled breath from rodents was then tested. A standard curve relating limonene concentration in chamber headspace to the quantity of limonene spiked into 0.5-L chambers was generated. To determine the fraction of limonene in mice that was emitted into the headspace, mice were injected intraperitoneally with different quantities of a limonene standard solution (from 0.01 μg to 1 mg) and individual mice were placed in a closed chamber for 15 minutes, at which point headspace limonene concentrations were measured by SIFT-MS (FIG. 4A and FIG. 4B).
# Using the standard curve, the mass of limonene exhaled by mice at each quantity injected was determined and the fraction exhaled was calculated. At the LOD (0.5 ppb), limonene in the chamber headspace became detectable when 2.3 ng had been spiked into the chamber, whereas limonene evolving from mice only became detectable at an injected dose of 450 ng (FIG. 4B, Supplementary Calculations shown in Example 2, infra). […]
# Prior to mouse studies, a calibration curve was generated. Known limonene quantities (10 μg to 100 μg) were added to 10 mL of water in […] (Kent Scientific, Torrington, CT). […]
compound,measurement,setting,value
C=C(C)[C@H]1CC=C(C)CC1 [limonene],safe oral dose,[1],≤ 100 mg/kg
same,safe oral dose for an average 70 kg adult,[1],~7 g
same,fraction of injected limonene emitted into the chamber headspace,"[2]; intraperitoneal injection, 0.5-L chamber, within 15 minutes",~0.5%
same,injected dose at which limonene evolving from mice became detectable,"[2]; intraperitoneal, at the LOD (0.5 ppb), 15 minutes",450 ng
